A word on the IC50: it is the point on the concentration scale where inhibition reaches its midpoint. Low values mean inhibition by little substance, high ones a need for much substance.

For the experiment, the target named is ATX (Mus musculus (Mouse), UniProt Q9R1E6). Put plainly: Mice serum ATX inhibitory activity (IC50 determination). The class given is biochemical. The protocol:
ATX Inhibitory activity was determined in a biochemical or whole blood assay as described previously (Bretschneider, T. et al., SLAS Discov 2017, 22, 425). The biochemical reaction consisted of 50 mM Tris (pH 8.0), 3 mM KCl, 1 mM CaCl2, 1 mM Mg Cl2, […] NaCl and 0.1% bovine serum albumin, which was supplemented with 5 nM recombinant rat ATX, 5 μM 18:1 LPC and the test compound (0.1-10 μM). The reaction was stopped at 2 h by the addition of butanol, prior to the RapidFire-MS-based analysis.
The whole blood assay consisted of 45 μL μL heparinized mice/rat whole blood and the test compound (0.12-100 μM). The reaction was stopped after 1 h at 37° C. by addition of 100 μL 40 mM disodium hydrogen phosphate buffer containing 30 mM citric acid (pH 4) and 1 μM 17:0 LPA (internal standard). Afterwards the samples were treated a described above and analysed by LC-MS/MS. The data was analyzed using graph pad prism (v 7.03) to arrive at the half-maximal inhibitory concentrations (IC50) of the test compounds.
Turning to `CC(C)[C@@H](NC(=O)c1cc(C(F)(F)F)ccc1F)C(=O)N1CCC2(CC1)C(=O)N(C)CC2c1ccc2[nH]ncc2c1` (stereo partly drawn) [Compound 58, N-((2R)-1-(4-(1H-indazol-5-yl)-2-methyl-1-oxo-2,8-diazaspiro[4.5]decan-8-yl)-3-methyl-1-oxobutan-2-yl)-2-fluoro-5-(trifluoromethyl)benzamide], the IC50 stood at 58.9 nM.
For `CC(C)[C@@H](NC(=O)c1cc(C(F)(F)F)ccc1F)C(=O)N1CCC2(CC1)C(=O)N(CCN)C(=O)C2c1ccccc1` (stereo partly drawn) [Compound 33, N-((2R)-1-(2-(2-aminoethyl)-1,3-dioxo-4-phenyl-2,8-diazaspiro[4.5]decan-8-yl)-3-methyl-1-oxobutan-2-yl)-2-fluoro-5-(trifluoromethyl)benzamide], the IC50 stood at 69.8 nM.
For the compound `CC(C)[C@@H](NC(=O)c1cc(C(F)(F)F)ccc1F)C(=O)N1CCC2(CCN(C)CC2c2ccccc2)CC1` (stereo partly drawn) [Compound 220, 2-fluoro-N-((2R)-3-methyl-1-(9-methyl-7-phenyl-3,9-diazaspiro[5.5]-undecan-3-yl)-1-oxobutan-2-yl)-5-(trifluoromethyl)benzamide], the half-maximal inhibitory concentration (IC50) turned out to be 9.9 nM.
With `CC(C)[C@@H](NC(=O)c1cc(C(F)(F)F)ccc1F)C(=O)N1CCC2(CC1)CC(=O)N(C)CC2c1ccc(F)cc1` (stereo partly drawn) [Compound 176, 2-fluoro-N-((2R)-1-(7-(4-fluorophenyl)-9-methyl-10-oxo-3,9-diazaspiro[5.5]undecan-3-yl)-3-methyl-1-oxobutan-2-yl)-5-(trifluoromethyl)benzamide] the figure was 7.5 nM; with `CC(C)[C@@H](NC(=O)c1cc(C(F)(F)F)ccc1F)C(=O)N1CCC2(CCN(C)CC2c2ccc(F)cc2)CC1` (stereo partly drawn) [Compound 221, 2-fluoro-N-((2R)-1-(7-(4-fluorophenyl)-9-methyl-3,9-diazaspiro[5.5]-undecan-3-yl)-3-methyl-1-oxobutan-2-yl)-5-(trifluoromethyl)benzamide], 5.1 nM.

(Values after patent US20240327407A1, “NOVEL INHIBITORS OF AUTOTAXIN” (CADILA HEAL THCARE LIMITED, priority 2021, published 2024).)
